Common to all, as to experiment: NCI-60 cell line screen, 48 h
Test [1] has as its system RXF 393 renal.
The test system of test [2] is HT29 colon.
Test [3] has as its system LOX IMVI melanoma.
Test [4] concerns NCI-H23 lung.
Test [5] deals with HS 578T breast.
The subject of test [6] is NCI-H226 lung.
The test system of test [7] is MOLT-4 leukemia.
Test [8] has as its system MDA-MB-435.
In test [9] the test system is OVCAR-5 ovarian.
Test [10] has as its system SK-MEL-28 melanoma.

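In this assay, cells in 96-well plates receive the compound at five concentrations for 48 hours. Endpoints are linearly interpolated between the surrounding concentrations. GI50 is the concentration that inhibits growth by half. TGI: concentration producing complete growth inhibition.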

As for `Cc1ccccc1C(C(=O)NC1CCCCC1)N(C(=O)CNc1ncccc1F)c1cccc(F)c1` (stereo not given), the GI50 is 4.72 µM in test [1]; above 100 µM in [2]; above 100 µM in [3]; above 57.8 µM in test [4]; 27.2 µM in test [5]; 38.3 µM in test [6]. The GI50 in [7], in test [8], in test [9] and in [10] was above 100 µM throughout. In addition, the TGI in test [1] is 20.1 µM; in test [2] it was above 100 µM; in [3] it was above 100 µM; in [4], above 100 µM; in [5], above 100 µM; in test [6] it was above 100 µM. For the same compound, the TGI in [7], in test [8], in [9] and in [10] was above 100 µM each time.

Turning to `Nc1ncn([C@H]2C[C@H](OP(=O)(O)OC[C@H]3O[C@@H](n4cnc5c(=O)[nH]c(N)nc54)C[C@@H]3O)[C@@H](CO)O2)c(=O)n1`, the GI50 is 12.2 µM in [1]; 47.1 µM in test [2]; 57 µM in test [3]; above 100 µM in test [4]; above 100 µM in [5]; above 100 µM in test [6]. Besides, the GI50 in test [7], in test [8], in test [9] and in test [10] was above 100 µM each time. Also, the TGI in test [1], in test [2], in test [3], in test [4], in test [5] and in test [6] was above 100 µM in each case. The TGI in test [7], in test [8], in test [9] and in [10] was above 100 µM each time.

Take `Cc1[nH]nc2ncc(C(=O)N3CCC[C@H]3c3ccc(Cl)cc3)cc12`: the GI50 in test [1] was 39.5 µM; in test [2], above 100 µM; in test [3] it was 47.2 µM; in [4] it was above 100 µM; in [5], above 100 µM; in test [6] it was 64.1 µM. The GI50 is 72.1 µM in test [7], 98.1 µM in test [8], above 100 µM in [9] and above 100 µM in test [10]. In addition, the TGI in [1], in test [2], in [3], in test [4], in [5] and in [6] was above 100 µM in each case. The TGI in test [7], in [8], in test [9] and in test [10] was above 100 µM in each case.

For `CN(C)CCOc1ccccc1NC1=C(Cl)C(=O)C(Nc2ccccc2OCCN(C)C)=C(Cl)C1=O`, the GI50 was 3.93 µM in [1]; 0.83 µM in [2]; 0.592 µM in test [3]; 6.47 µM in test [4]; 29.5 µM in test [5]; 23.6 µM in [6]. The GI50 was 0.694 µM in test [7], 9.42 µM in test [8], 10.2 µM in test [9] and above 95 µM in test [10]. Also, the TGI in test [1] is 10.4 µM; in [2] it was 3.5 µM; in test [3], 1.25 µM; in test [4], 22.6 µM; in [5] it was above 83.1 µM; in test [6], above 57.9 µM. Moreover, the TGI in [7] is 1.91 µM; in test [8], above 40.6 µM; in test [9], above 38.6 µM; in test [10], above 100 µM.

On to `CC1(C)CCC(C)(C)c2cc(NC(=O)c3ccc(C(=O)O)cc3)ccc21`, for which the TGI in test [1] was above 79.9 µM; in test [2], above 95 µM; in test [3], 48.3 µM; in [4], 53.9 µM; in test [5], above 83.5 µM; in test [6], above 79.5 µM. The TGI is above 100 µM in [7], above 77.8 µM in test [8], above 95.2 µM in test [9] and above 82.2 µM in [10].

In the case of `CN(C)CCS(=O)(=O)Nc1cc(-c2ccc3ncc(C#N)c(Nc4ccc(F)c(Cl)c4)c3c2)cnc1Cl`, the GI50 in test [1] was 0.0953 µM; in [2] it was 0.388 µM; in test [3], 0.117 µM; in [4] it was 0.159 µM; in test [5], 0.127 µM; in test [6] it was 0.281 µM. Further, the GI50 was 0.12 µM in [7], 0.374 µM in test [8], 0.303 µM in test [9] and 0.176 µM in [10]. Further, the TGI in test [1] was 0.348 µM; in [2] it was above 25.9 µM; in test [3], 0.284 µM; in test [4], 0.469 µM; in [5] it was 1.03 µM; in test [6] it was 2.59 µM. Also, the TGI in [7] was determined as 0.547 µM; in [8], 3 µM; in test [9], 4.9 µM; in test [10], 1.28 µM.

As to `O=c1oc2ccc(Br)cc2c(=O)n1-c1ccc(Cl)cc1F`, the GI50 in test [1] was 1.05 µM; in [2] it was 3.35 µM; in test [3] it was 0.827 µM; in test [4], 1.03 µM; in test [5], 0.553 µM; in [6], 1.43 µM. Also, the GI50 in [7] was 1.7 µM; in test [8], 1.35 µM; in test [9], 3.84 µM; in test [10] it was 0.522 µM. Further, the TGI is 4.47 µM in test [1]; above 34 µM in test [2]; 4.54 µM in test [3]; 4.77 µM in [4]; 5.69 µM in test [5]; 5.11 µM in test [6]. Further, the TGI in test [7] is 5.22 µM; in test [8] it was 6.23 µM; in [9], above 100 µM; in test [10], 3.03 µM.

For `COC(=O)CNc1nc(N(C)O)nc(N(C)O)n1`, the GI50 in [1] is 4.85 µM; in test [2], 6.5 µM; in [3], 1.71 µM; in test [4], 11.5 µM; in test [5], 8.96 µM; in [6], 8.31 µM. Also, the GI50 in test [7] is 1.69 µM; in test [8], 10.5 µM; in test [9], 9.24 µM; in test [10], 4.53 µM. In addition, the TGI in test [1], in test [2], in [3], in test [4], in [5] and in test [6] was above 100 µM throughout. Moreover, the TGI in test [7], in test [8], in test [9] and in test [10] was above 100 µM in each case.

(Values after PubChem BioAssay (NCI).)
